Among the data in ChEMBL document CHEMBL1154948, “Carbonic anhydrase inhibitors. Inhibition of transmembrane isoforms IX, XII, and XIV with less investigated anions including trithiocarbonate and dithiocarbamate” (Bioorg Med Chem Lett, 2010) are Kinact values, retold here.

The target in test [1] is Carbonic anhydrase 12 (Homo sapiens) (UniProt O43570).
The target in test [2] is Carbonic anhydrase 9 (Homo sapiens) (UniProt Q16790). Briefly: Inhibition of human recombinant CA9 by stopped flow CO2 hydration assay.
Test [3] addresses Carbonic anhydrase 14 (Homo sapiens) (UniProt Q9ULX7).
Description: Inhibition of human recombinant CA14 by stopped flow CO2 hydration assay

Chain of Carbonic anhydrase 14 (Homo sapiens) (Q9ULX7 whole entry): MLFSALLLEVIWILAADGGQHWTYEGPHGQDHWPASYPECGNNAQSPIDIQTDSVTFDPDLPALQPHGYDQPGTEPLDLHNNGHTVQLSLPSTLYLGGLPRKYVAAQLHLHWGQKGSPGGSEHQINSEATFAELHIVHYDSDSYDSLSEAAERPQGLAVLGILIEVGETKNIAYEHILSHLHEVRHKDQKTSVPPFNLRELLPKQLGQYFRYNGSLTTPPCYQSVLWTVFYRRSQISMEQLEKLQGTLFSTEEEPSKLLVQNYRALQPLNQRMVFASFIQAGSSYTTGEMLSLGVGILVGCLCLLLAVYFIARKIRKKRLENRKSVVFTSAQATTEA
Chain of Carbonic anhydrase 12 (Homo sapiens) (O43570 whole entry): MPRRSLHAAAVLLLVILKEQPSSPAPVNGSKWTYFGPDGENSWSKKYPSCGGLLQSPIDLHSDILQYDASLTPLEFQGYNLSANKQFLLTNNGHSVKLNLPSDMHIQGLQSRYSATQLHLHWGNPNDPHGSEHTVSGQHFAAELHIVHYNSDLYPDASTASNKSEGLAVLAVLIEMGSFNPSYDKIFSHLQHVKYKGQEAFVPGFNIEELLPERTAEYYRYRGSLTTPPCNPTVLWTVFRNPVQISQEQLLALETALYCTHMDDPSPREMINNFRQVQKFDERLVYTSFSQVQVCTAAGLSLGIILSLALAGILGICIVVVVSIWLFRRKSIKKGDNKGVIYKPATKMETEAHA

For SODIUM STANNATE, the Kinact in test [1] stood at 1.02 mM.

Consider `CCN(CC)C(=S)S`, for which the Kinact in test [2] turned out to be 0.0014 mM; in test [1], 0.0011 mM; in test [3], 0.001 mM.

On to `O=[Se](=O)(O)O`, for which the Kinact in test [2] was 183 mM; in test [1], 138 mM; in test [3], 49.6 mM.

Take `O=P(O)(O)OP(=O)(O)O`: the Kinact in test [2] worked out at 46.3 mM; in test [1], 63.9 mM; in test [3], 0.76 mM.

For the compound SODIUM DIOXIDOTRIOXOOSMIUM, the values for the Kinact in test [2], in test [1] and in test [3] were 184 mM, 130 mM and 72.5 mM, respectively.
